{"source": "patent US20230277543A1", "about": "“COMPOSITIONS AND METHODS FOR TREATING DISEASES ASSOCIATED WITH ELEVATED ARGININE VASOPRESSIN LEVELS” (The United States Government As Represented By The …, priority 2022, published 2023)", "key": {"[1]": {"test_system": "mice", "assay": "urinary concentrating ability and AVP production in mice", "type": "in vivo", "conditions": "for urinary excretion of AVP: ticagrelor effect dose-dependent", "protocol": "The effect of prasugrel on urinary concentration ability in mice was also tested and the same findings as clopidogrel were observed.\nBoth clopidogrel bisulfate and prasugrel belong to thienopyridine group of drugs, and thus both are prodrugs that need to be metabolized in the liver releasing their active metabolites that block the platelet P2Y12 receptor."}, "[2]": {"conditions": "major metabolite of ticagrelor; cited from earlier work"}, "[3]": {"target": "CYP3A4 (Homo sapiens, UniProt P08684)", "sequence (P08684 whole entry)": "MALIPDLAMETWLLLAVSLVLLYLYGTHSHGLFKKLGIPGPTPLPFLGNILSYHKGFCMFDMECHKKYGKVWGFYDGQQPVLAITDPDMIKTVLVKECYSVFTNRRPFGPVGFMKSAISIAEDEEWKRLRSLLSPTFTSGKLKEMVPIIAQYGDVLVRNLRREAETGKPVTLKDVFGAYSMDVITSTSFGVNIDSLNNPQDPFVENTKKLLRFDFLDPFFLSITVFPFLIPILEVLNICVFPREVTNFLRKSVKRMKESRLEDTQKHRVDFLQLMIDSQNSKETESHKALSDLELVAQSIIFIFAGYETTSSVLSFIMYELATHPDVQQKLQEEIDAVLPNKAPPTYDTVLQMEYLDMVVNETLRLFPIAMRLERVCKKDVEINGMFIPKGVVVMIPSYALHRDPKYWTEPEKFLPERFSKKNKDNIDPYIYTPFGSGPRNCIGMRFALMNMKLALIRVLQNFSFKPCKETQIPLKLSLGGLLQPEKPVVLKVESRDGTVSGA", "conditions": "cited from earlier work"}, "[4]": {"test_system": "patients", "conditions": "in a vast majority of patients; cited from earlier work"}, "[5]": {"test_system": "rodent models of ADPKD", "conditions": "by reducing cAMP production in the kidney; cited from earlier work"}, "[6]": {"target": "vasopressin V2 receptor (Homo sapiens, UniProt P30518)", "sequence (P30518 whole entry, species assumed)": "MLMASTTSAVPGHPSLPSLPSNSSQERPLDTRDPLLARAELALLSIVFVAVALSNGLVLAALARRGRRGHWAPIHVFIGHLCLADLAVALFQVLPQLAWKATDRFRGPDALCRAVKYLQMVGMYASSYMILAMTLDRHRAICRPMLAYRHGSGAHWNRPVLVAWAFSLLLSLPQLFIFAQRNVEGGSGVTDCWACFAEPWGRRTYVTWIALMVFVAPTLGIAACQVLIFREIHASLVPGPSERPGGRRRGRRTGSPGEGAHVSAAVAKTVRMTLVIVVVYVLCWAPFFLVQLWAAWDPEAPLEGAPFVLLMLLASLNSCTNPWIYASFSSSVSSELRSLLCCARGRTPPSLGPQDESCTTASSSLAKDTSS", "conditions": "chronic blockade of vasopressin V2 receptor; cited from earlier work"}, "[7]": {"test_system": "AVP gene", "assay": "mRNA expression of AVP in primary cultures of rat hypothalamic cells", "type": "cell-based", "description": "Alternatively, the observed in vivo effect of ticagrelor in mice can be the due to a ticagrelor metabolite such as AR-C124910XX or AR-C133913XX, which may bind to hypothalamic cells at a site other than P2Y12 receptor and exert inhibitory effect on the production of AVP. […] Based on this observation on cultured hypothalamic cells and the unequivocal data obtained from the primary cultures of rat inner medullary collecting duct cells, the observed in vivo effect of ticagrelor on decreased AVP production is mediated by the action of one or both metabolites of ticagrelor (AR-C124910XX or AR-C133913XX)."}, "[8]": {"test_system": "rat inner medullary collecting duct cells", "assay": "dDAVP-induced AQP2/AQP3 mRNA expression and cAMP production in primary cultures of rat inner medullary collecting duct cells", "type": "cell-based", "description": "In sum, ticagrelor binds to P2Y12 receptor in medullary collecting duct cells and enhances the effect on dDAVP on the mRNA expression of AQP2 and AQP3 water channels and cAMP production. Thus, the observed decreased urinary concentration in ticagrelor-treated mice was not because of the effect of ticagrelor on renal medullary collecting duct."}, "[9]": {"test_system": "rats", "conditions": "administration to rats", "description": "The blockade of P2Y12 receptor by PSB-0739 on AVP gene expression in cultured rat hypothalamic cells was studied."}}}
{"molecule": "CC(=O)Oc1cc2c(s1)CCN(C(C(=O)C1CC1)c1ccccc1F)C2", "note": "(centres unmarked) [prasugrel]", "values": [{"measurement": "protein abundance of AQP2 in the kidney medulla", "setting": "[1]; administered to mice", "value": "significantly increased"}, {"measurement": "urine concentrating ability", "setting": "[1]; administered to mice", "value": "significantly increased"}, {"measurement": "urinary excretion of AVP", "setting": "[1]; administered to mice", "value": "significantly increased"}]}
{"molecule": "CCCSc1nc(N)c2nnn([C@@H]3C[C@H](OCCO)[C@@H](O)[C@H]3O)c2n1", "note": "[AR-C133913XX]", "values": [{"measurement": "where the metabolite is found", "setting": "[2]", "value": "urine and feces"}]}
{"molecule": "Cc1ccccc1C(=O)Nc1ccc(C(=O)N2CCCC(O)c3cc(Cl)ccc32)c(C)c1", "note": "(centres unmarked) [tolvaptan]", "values": [{"measurement": "metabolizing enzyme system", "setting": "[3]", "value": "metabolized by the CYP3A4 system"}, {"measurement": "adverse effects", "setting": "[4]", "value": "severe polyuria (loss of water in the urine), nocturia (frequent urination in the night), thirst and dry mouth"}, {"measurement": "cystogenesis", "setting": "[5]", "value": "consistently inhibited"}, {"measurement": "endogenous production of AVP", "setting": "[6]", "value": "increased"}]}
{"molecule": "Cc1ccccc1C(=O)Nc1ccc(C(=O)N2CCCC(N(C)C)c3ccccc32)cc1", "note": "(centres unmarked) [OPC-31260]", "values": [{"measurement": "cystogenesis", "setting": "[5]", "value": "consistently inhibited"}]}
{"molecule": "CCCSc1nc(N[C@@H]2C[C@H]2c2ccc(F)c(F)c2)c2nnn([C@@H]3C[C@H](OCCO)[C@@H](O)[C@H]3O)c2n1", "note": "[ticagrelor]", "values": [{"measurement": "urine concentrating ability", "setting": "[1]; administered to mice", "value": "dilution of urine"}, {"measurement": "urinary excretion of AVP", "setting": "[1]; administered to mice", "value": "decreased"}, {"measurement": "urine flow", "setting": "[1]; mice, dose-dependent", "value": "increased"}, {"measurement": "baseline mRNA expression of AVP", "setting": "[7]; cultured hypothalamic cells", "value": "~1.8", "unit": "fold"}, {"measurement": "dDAVP-induced increase in cAMP production", "setting": "[8]", "value": "did not interfere"}, {"measurement": "mRNA expression of dDAVP-induced AQP2 water channel protein", "setting": "[8]", "value": "concentration-dependent increases"}, {"measurement": "mRNA expression of dDAVP-induced AQP3 water channel protein", "setting": "[8]", "value": "concentration-dependent increases"}]}
{"molecule": "Nc1c(S(=O)(=O)O)cc(Nc2ccc(Nc3ccccc3)c(S(=O)(=O)O)c2)c2c1C(=O)c1ccccc1C2=O", "note": "[PSB-0739]", "values": [{"measurement": "mRNA expression of the AVP gene", "setting": "[7]; cultured rat hypothalamic cells, exposed for 24 hours, blockade of P2Y12 receptor", "value": "significantly increased"}]}
{"molecule": "CCCSc1nc(N[C@@H]2C[C@H]2c2ccc(F)c(F)c2)c2nnn([C@@H]3C[C@H](O)[C@@H](O)[C@H]3O)c2n1", "note": "[AR-C124910XX]", "values": [{"measurement": "where the metabolite is found", "setting": "[2]", "value": "mostly in plasma and feces"}]}
{"molecule": "COC(=O)[C@H](c1ccccc1Cl)N1CCc2sccc2C1", "note": "[clopidogrel]", "values": [{"measurement": "AVP production", "setting": "[9]", "value": "increase"}]}
{"molecule": "Nc1ncnc2c1ncn2[C@@H]1O[C@H](COP(=O)(O)OP(=O)(O)O)[C@@H](O)[C@H]1O", "note": "[ADP]", "values": [{"measurement": "effect of PSB-0739 on AVP gene expression", "setting": "[7]; cultured rat hypothalamic cells, combination with PSB-0739, 24 hours", "value": "blocked"}]}
